From patent US12269793B2, “Affinity illudofulvene conjugates” (AF Chemicals, LLC, priority 2019, dated 2025)
Where two headings read alike, the source gives them in different places. Where a SMILES comes first, the peptide text is derived from it. [ ]: non-standard residue; d: D form. The star is where a group is joined. X4 = CC1=C(C*)C2=C(C)C3(CC3)[C@@](C)(O)C(=O)C2=C1

Experiments:
[1] = test system: MV522 Target Cell Line (lung-derived adenocarcinoma); assay: cells; conditions: MV522, 48 h, read-out: Mean IC50 value
[2] = test system: 8392B Nontarget Cell Line (hematopoietic); assay: cells; conditions: 48 h, read-out: Mean IC50 value
[3] = test system: MV522 Target Cell Line (lung-derived adenocarcinoma); assay: cells; conditions: MV522, 2 h, read-out: Mean IC50 value
NCI 60 cell line panel = assay: NCI DTP 60 cell line screen assay
Text: An ADC is engulfed by a tumor cell, transported to the endosomes (pH<6.0) and then into the lysozomes (pH<4). […] 4). Cancer cells can become resistant to various toxins and drugs through the development of what is termed multi-drug resistance. This process is known to occur through several different mechanisms.

[4] = test system: 8392B Nontarget Cell Line (hematopoietic); assay: cells; conditions: 2 h
in vitro = conditions: human
Text: (§1) MCF7 over express estrogen alpha-receptors.
(§2) MCF7 cells over express estrogen alpha-receptors.

MCF7 (ER positive) = type: cell-based; conditions: MCF7 (ER positive) versus HT29 (ER negative), result in words
Text: as §1, §2

[5] = test system: 8392B Nontarget Cell Line (hematopoietic); conditions: read-out: Mean IC50 value, 48 hr exposure, ± SD, N = 3 unless otherwise indicated
[6] = read-out: Mean IC50 value, 8392B Nontarget Cell Line, 2 hr exposure, ± SD, N = 3 unless otherwise indicated

SMILES | IC50 [1] [nM] | IC50 [2] [µM] | IC50 [3] [µM] | IC50 [4, 6] [µM] | also measured
CC1=CC2=C(C)C3(CC3)[C@@](C)(O)C(=O)C2=C1 [Analog 001] | 350 ± 20 | 0.83 ± 0.1 | 2.2 ± 0.1 |  | 
CC1=C(CO)C2=C(C)C3(CC3)[C@@](C)(O)C(=O)C2=C1 [Analog 002] |  |  |  |  | MDR Activity (NCI 60 cell line panel): Yes; Cytotoxicity (NCI 60 cell line panel; ability to actually kill tumor cells versus only inhibiting growth): Yes
CC(=O)OCOCC1=C(C)C=C2C(=O)[C@](C)(O)C3(CC3)C(C)=C21 [Analog 008] | 630 ± 80 | 15.1 ± 2.2 | 0.87 ± 0.09 |  | 
CC1=C([N+](=O)[O-])C2=C(C)C3(CC3)[C@@](C)(O)C(=O)C2=C1 [Analog 012] | 320 ± 90 | 18.8 ± 2.8 | 5.15 ± 1.35 | 42.2 ± 5 | 
CC(=O)N[C@@H](CSCC1=C(C)C=C2C(=O)[C@](C)(O)C3(CC3)C(C)=C21)C(=O)N[C@@H](Cc1ccccc1)C(=O)NCC(=O)N[C@H](C=O)CC(C)C [Analog 083] (Ac-C(X4)FGL-aldehyde) | 37200 ± 2900 | > 42 |  |  | 
CC(=O)N[C@@H](CSCC1=C(C)C=C2C(=O)[C@](C)(O)C3(CC3)C(C)=C21)C(=O)N[C@@H](CC(C)C)C(=O)NCC(=O)N[C@@H](C=O)Cc1ccccc1 [Analog 084] (Ac-C(X4)LG[dF]-aldehyde) | 28200 ± 1400 | > 42 |  |  | 
CC(=O)O[C@@]1(C)C(=O)C2=CC(CO)=CC2=C(C)C12CC2 [Analog 090] | 2900 ± 400 | 3.8 ± 0.3 | 2.5 ± 0.4 | 1.6 ± 0.2 | 
CC1=C(CSc2nccn2C)C2=C(C)C3(CC3)[C@@](C)(O)C(=O)C2=C1 [Analog 096] | 6200 ± 600 | > 3 |  | > 88 | 
CC1=C(CSC[C@@H](C)C(=O)N2CCC[C@H]2C(=O)O)C2=C(C)C3(CC3)[C@@](C)(O)C(=O)C2=C1 [Analog 098] | 4600 ± 250 | 11.7 ± 1.8 | 18.8 ± 2.5 | > 65 | 
CC1=C(CCC(=O)Oc2ccc3c(c2)CCC2C3CC[C@]3(C)C(O)CCC23)C2=C(C)C3(CC3)[C@@](C)(O)C(=O)C2=C1 (some centres unmarked) [Analog 108] | 520 ± 50 |  | 12.3 ± 2.3 |  | IC50 ([4]; read-out: Mean IC50 value): > 55 µM; IC50 (in vitro): > 55 µM
CC1=C(CCC(=O)Oc2ccc3c(c2)CCC2C3CC[C@]3(C)C(=O)CCC23)C2=C(C)C3(CC3)[C@@](C)(O)C(=O)C2=C1 (some centres unmarked) [Analog 110] |  | 25.3 ± 2.1 | > 55 |  | IC50 ([4]; read-out: Mean IC50 value): > 55 µM; preferential killing of ER positive cells (MCF7 (ER positive)): preferentially killed; IC50 (in vitro): > 19 µM
C=CCCC1=C(C)C=C2C(=O)[C@](C)(O)C3(CC3)C(C)=C21 [Analog 113] | 14100 ± 3000 | 7.8 ± 1 | 85 ± 0.7 | > 93 | 
CC1=C(CCC2CO2)C2=C(C)C3(CC3)[C@@](C)(O)C(=O)C2=C1 (some centres unmarked) [Analog 114] | 260 ± 70 | 0.7 ± 0.1 | 1.5 ± 0.1 | 25.1 ± 1 | 
CC1=C(CCC=NN=CCCC2=C(C)C=C3C(=O)[C@@](C)(O)C4(CC4)C(C)=C32)C2=C(C)C3(CC3)[C@@](C)(O)C(=O)C2=C1 [Analog 120] | 600 ± 100 | 0.51 ± 0.11 | 2.8 ± 0.9 | 19.1 ± 4.6 | 
CC1=C(CCC=NNc2ccc([N+](=O)[O-])cc2[N+](=O)[O-])C2=C(C)C3(CC3)[C@@](C)(O)C(=O)C2=C1 [Analog 125] |  | 0.6 ± 0.1 | 3.7 ± 0.6 | 15.5 ± 1.4 | 
CC1=C(CCC(C)O)C2=C(C)C3(CC3)[C@@](C)(O)C(=O)C2=C1 (some centres unmarked) [Analog 128] | 370 ± 50 | 0.8 ± 0.07 | 0.84 ± 0.23 | > 35 | 
CC1=CC2=C(C)C3(CC3)[C@@](C)(O)C(O)C2=C1 (some centres unmarked) [Analog 129] | 19700 ± 1900 | 39.4 ± 9.2 | > 136 | > 136 | 
CC(=O)ON(C(C)=O)c1ccc(C(=O)OC[C@]2(C)C=C3C(=O)[C@](C)(O)C4(CC4)C(C)=C3C2OC(=O)c2ccc(N(OC(C)=O)C(C)=O)cc2)cc1 (some centres unmarked) [Analog 140] |  |  |  |  | IC50 [5]: > 14 µM
COC(=O)C1=C(C(=O)OC)C23C=C(C)C1C2=C(C)C1(CC1)[C@@](C)(O)C3=O (some centres unmarked) [Analog 142] |  |  |  |  | Activity Value (NCI 60 cell line panel; NCI 60 cell line screen, negative = lyse tumor cells, zero = no growth, positive = slower growth): −5; MDR Activity (NCI 60 cell line panel): Yes
